According to patent US9012446B2, “Amino-oxazines and amino-dihydrothiazine compounds as beta-secretase modulators and methods of use” (Amgen Inc., priority 2010, dated 2015):
Read-outs that look alike come from different tables or passages of the source.

How the values were obtained:
Aβ40 = test: In vitro BACE cell-based assay (Aβ40 sandwich ELISA, cells stably expressing APP)
Experimental: In Vitro BACE Cell-Based Assay […] Cells stably expressing Amyloid Precursor Protein (APP) were plated at a density of 40K cells/well in 96 well plates (Costar). The cells were cultivated for 24 hours at 37° C. and 5% CO2 in DMEM supplemented with 10% FBS. The test compounds were then added to cells in 10-point dose response concentrations with the starting concentration being either 100 μM or 10 μM. The compounds were diluted from stock solutions in DMSO and the final DMSO concentration of the test compounds on cells was 0.1%. […] The IC50 of the compound was calculated from the percent of control or percent inhibition of Aβ40 as a function of the concentration of the test compound. The sandwich ELISA to detect Aβ40 was performed in 96 well microtiter plates, which were pre-treated with goat anti-rabbit IgG (Pierce). […] The optimal concentration for the pAb40 antibody was 3 μg/ml in Superblock/TBS (Pierce) that was supplemented with 0.05% Tween 20 (Sigma). […] Cellular supernatants were incubated with the capture antibody for 3 h at 4° C., followed by 3 wash steps in TBS-tween (0.05%). The detecting antibody incubation was for 2 h at 4° C., again followed by the wash steps as described previously. The final readout of the ELISA is Time-Resolved Fluorescence (counts per minute) using Delfia reagents Streptavidin-Europium and Enhancement solutions (Perkin Elmer) and the Victor 2 multilabel counter (Perkin Elmer).

BACE = BACE (Homo sapiens, UniProt P56817); test: In vitro enzymatic BACE FRET assay; assay type: biochemical; settings: average IC50, enzyme assay; read-out: BACE 1 FRET assay
Sequence of BACE (P56817 46-501, species assumed): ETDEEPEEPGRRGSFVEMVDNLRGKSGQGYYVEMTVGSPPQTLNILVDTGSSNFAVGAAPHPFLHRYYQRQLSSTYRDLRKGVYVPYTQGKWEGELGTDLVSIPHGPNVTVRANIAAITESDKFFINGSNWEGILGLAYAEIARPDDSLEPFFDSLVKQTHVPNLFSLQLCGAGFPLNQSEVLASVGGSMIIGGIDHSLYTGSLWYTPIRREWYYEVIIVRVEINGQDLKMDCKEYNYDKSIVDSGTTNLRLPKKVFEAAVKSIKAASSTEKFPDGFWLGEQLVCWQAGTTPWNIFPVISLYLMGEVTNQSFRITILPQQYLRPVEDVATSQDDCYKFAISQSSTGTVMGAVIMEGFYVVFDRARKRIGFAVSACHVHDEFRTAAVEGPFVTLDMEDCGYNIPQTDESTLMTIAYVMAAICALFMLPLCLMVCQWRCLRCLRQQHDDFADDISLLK
Experimental: In Vitro Enzymatic BACE FRET (Fluorescence Resonance Energy Transfer) Assay (Enzyme Assay Data in the Example Table I) The assay buffer used in this screen is 0.05 M acetate, pH 4.2, 10% DMSO final, 100 uM genapol (which is a nonionic detergent, below its Critical Micelle Concentration). The beta secretase enzyme (0.2 nM) is pre-incubated for one hour with inhibitors, typically in about 1 uL of DMSO according to a serial dilution, are added thereto. This assay is effectively started by the addition of FRET substrate (50 nM) and the combination is incubated for one hour. The FRET assay is terminated with by addition of Tris buffer, which raises the pH to neutrality, and the fluorescence is determined. The FRET substrate is a peptide with commercially available fluorophore and quencher, on opposite sides of the BACE cleavage site. Proteolytic cleavage of the FRET substrate releases quenching of fluorescence (excitation 488 nm and emission […]).

[1] = Homo sapiens, HEK293, average IC50, read-out: HEK cell assay
[2] = average IC50, read-out: HEK cell assay

| SMILES | IC50 (BACE) | other results |
| --- | --- | --- |
| NC1=N[C@@]2(CO[C@H]1C1CCCCC1)c1cc(-c3cccnc3F)ccc1Oc1cnc(Cl)cc12 (racemic) [Example 56A, (3′S,6′S)-3-chloro-6′-cyclohexyl-7-(2-fluoropyridin-3-yl)-2′,6′-dihydrospiro[chromeno[2,3-c]pyridine-5,3′-[1,4]oxazin]-5′-amine] | 30.7 nM | IC50 (Aβ40; [1]): 138 nM |
| NC1=N[C@]2(CO[C@H]1C1CCCCC1)c1cc(-c3cccnc3F)ccc1Oc1cnc(Cl)cc12 (racemic) [Example 56B, (3′R,6′S)-3-chloro-6′-cyclohexyl-7-(2-fluoropyridin-3-yl)-2′,6′-dihydrospiro[chromeno[2,3-c]pyridine-5,3′-[1,4]oxazin]-5′-amine] | 1280 nM | IC50 (Aβ40; [1]): 452 nM |
| COc1cc(F)c2c(c1)C1(CCOC(N)=N1)c1cc(Br)ccc1O2 (racemic) [compound 20] | 15400 nM |  |
| NC1=N[C@]2(CCO1)c1cc(-c3cccnc3F)ccc1Oc1c2cc(-c2ccnc(F)c2)nc1F (racemic) [compound 103] | 2.2 nM | IC50 (Aβ40; average IC50, cell assay, HEK cells): 6.9 nM |
| COc1cc(F)c2c(c1)[C@@]1(CCSC(N)=N1)c1cc(-c3cccnc3F)ccc1O2 (racemic) [compound 191] | 87.3 nM | IC50 (Aβ40; [2]): 374 nM |
| NC1=N[C@]2(CO[C@@H]1C1CCOCC1)c1cc(-c3cccnc3F)ccc1Oc1cnc(Cl)cc12 (racemic) [compound 207] | 11.5 nM | IC50 (Aβ40; [2]): 21.3 nM |
| NC1=N[C@@]2(COC1)c1cc(Br)ccc1Oc1cnc(Cl)cc12 (single isomer, unassigned) [Example 9A] | 4150 nM |  |
| NC1=N[C@]2(COC1)c1cc(Br)ccc1Oc1cnc(Cl)cc12 (single isomer, unassigned) [Example 9B] | 23100 nM |  |
| NC1=N[C@]2(COC1)c1cc(-c3cccnc3F)ccc1Oc1c(F)cc(N3CCOCC3)cc12 [35B] | 211 nM | IC50 (Aβ40; Homo sapiens, HEK293, average IC50, cell assay, HEK cells): 86.2 nM |
| CC(C)(C)COc1ccc2c(c1)[C@]1(COCC(N)=N1)c1cc(Br)ccc1O2 [Example 67a, (3R)-2′-bromo-7′-(2,2-dimethylpropoxy)-6H-spiro[1,4-oxazine-3,9′-xanthen]-5-amine] |  | IC50 (Aβ40; [1]): 587 nM |
| NC1=NC2(COC1)c1cc(Br)ccc1Oc1cnc(Cl)cc12 (stereo not shown) [compound 9] | 4130 nM |  |
| NC1=NC2(CCS1)c1cc(Br)ccc1Oc1ccc(I)cc12 (stereo not shown) [compound 13] | 9960 nM |  |
| NC1=NC2(CCO1)c1cc(I)ccc1Oc1ncc(Br)cc12 (stereo not shown) [compound 25] | 16000 nM |  |
| COc1ccc2c(c1)[C@]1(COCC(N)=N1)c1cc(Br)ccc1O2 [compound 134] | 7110 nM |  |
| COc1ccc2c(c1)C1(CCSC(N)=N1)c1cc(Br)ccc1O2 (stereo not shown) [compound 136] | 23700 nM |  |
| NC1=N[C@@]2(CCO1)c1cc(-c3cccnc3F)ccc1Oc1cnc(-c3ccccc3)cc12 [compound 138] | 4.1 nM |  |
| COc1cc(F)c2c(c1)[C@@]1(CCOC(N)=N1)c1cc(-c3cccnc3F)ccc1O2 [compound 174] | 4220 nM |  |
| COc1cc(F)c2c(c1)[C@@]1(CCSC(N)=N1)c1cc(-c3cccnc3F)ccc1O2 [compound 186] | 9590 nM |  |
| NC1=N[C@@]2(CO[C@@H]1C(F)(F)F)c1cc(Br)ccc1Oc1cnc(Cl)cc12 [compound 205] | 20000 nM |  |
| NC1=N[C@@]2(CCO1)c1cc(-c3cccnc3F)ccc1Oc1c2cc(-c2ccccc2)nc1F [compound 230] | 2 nM |  |
| NC1=N[C@]2(CCO1)c1cc(-c3cccnc3F)ccc1Oc1c2cc(-c2ccccc2)nc1F [compound 235] | 176 nM |  |
| CC1COC(N)=N[C@@]12c1cc(-c3cccnc3F)ccc1Oc1cnc(C3=CCCOC3)cc12 (stereo partly shown) [compound 261] | 890 nM |  |
| C[C@@H]1COC(N)=N[C@]12c1cc(-c3cccnc3F)ccc1Oc1cnc(C3=CCCOC3)cc12 [compound 262] | 4.1 nM |  |
| C[C@H]1COC(N)=N[C@@]12c1cc(-c3cccnc3F)ccc1Oc1cnc(C3=CCCOC3)cc12 [compound 263] | 449 nM |  |
| CC1COC(N)=N[C@]12c1cc(-c3cccnc3F)ccc1Oc1cnc(C3=CCCOC3)cc12 (stereo partly shown) [compound 264] | 3.7 nM |  |
